Assay results: PMC12136037, “Type II kinase inhibitors that target Parkinson’s disease–associated LRRK2” (Science Advances, 2025)

Columns and labels:
Test in all cases: DSF 100 kinase selectivity screen;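 further: compound tested at 20 µM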
Assay type in all cases: binding
[1] = molecular target: T1, ~100 representative kinases (Homo sapiens, UniProt P00519); conditions: Protein ABL1; average of three replicates
T1 construct: Recombinant protein kinase domains with a concentration of 2 μM
Method in brief: (§1)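 Each kinase domain, at 2 μM, is mixed with 20 μM test compound and SYPRO Orange in Hepes (20 mM, pH 7.5) with 500 mM NaCl. Temperature is then raised at 3°C/min and fluorescence-monitored unfolding yields the melting temperature change, ΔTm in degrees Celsius.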

[2] = molecular target: T2, ~100 representative kinases (Homo sapiens, UniProt P49137); conditions: protein MAPKAPK2; average of three replicates
T2 construct: Recombinant protein kinase domains with a concentration of 2 μM
Method in brief: as §1

[3] = molecular target: T3, ~100 representative kinases (Homo sapiens, UniProt O14976); conditions: protein GAK; average of three replicates
T3 construct: Recombinant protein kinase domains with a concentration of 2 μM
T3 sequence (O14976 1-1311): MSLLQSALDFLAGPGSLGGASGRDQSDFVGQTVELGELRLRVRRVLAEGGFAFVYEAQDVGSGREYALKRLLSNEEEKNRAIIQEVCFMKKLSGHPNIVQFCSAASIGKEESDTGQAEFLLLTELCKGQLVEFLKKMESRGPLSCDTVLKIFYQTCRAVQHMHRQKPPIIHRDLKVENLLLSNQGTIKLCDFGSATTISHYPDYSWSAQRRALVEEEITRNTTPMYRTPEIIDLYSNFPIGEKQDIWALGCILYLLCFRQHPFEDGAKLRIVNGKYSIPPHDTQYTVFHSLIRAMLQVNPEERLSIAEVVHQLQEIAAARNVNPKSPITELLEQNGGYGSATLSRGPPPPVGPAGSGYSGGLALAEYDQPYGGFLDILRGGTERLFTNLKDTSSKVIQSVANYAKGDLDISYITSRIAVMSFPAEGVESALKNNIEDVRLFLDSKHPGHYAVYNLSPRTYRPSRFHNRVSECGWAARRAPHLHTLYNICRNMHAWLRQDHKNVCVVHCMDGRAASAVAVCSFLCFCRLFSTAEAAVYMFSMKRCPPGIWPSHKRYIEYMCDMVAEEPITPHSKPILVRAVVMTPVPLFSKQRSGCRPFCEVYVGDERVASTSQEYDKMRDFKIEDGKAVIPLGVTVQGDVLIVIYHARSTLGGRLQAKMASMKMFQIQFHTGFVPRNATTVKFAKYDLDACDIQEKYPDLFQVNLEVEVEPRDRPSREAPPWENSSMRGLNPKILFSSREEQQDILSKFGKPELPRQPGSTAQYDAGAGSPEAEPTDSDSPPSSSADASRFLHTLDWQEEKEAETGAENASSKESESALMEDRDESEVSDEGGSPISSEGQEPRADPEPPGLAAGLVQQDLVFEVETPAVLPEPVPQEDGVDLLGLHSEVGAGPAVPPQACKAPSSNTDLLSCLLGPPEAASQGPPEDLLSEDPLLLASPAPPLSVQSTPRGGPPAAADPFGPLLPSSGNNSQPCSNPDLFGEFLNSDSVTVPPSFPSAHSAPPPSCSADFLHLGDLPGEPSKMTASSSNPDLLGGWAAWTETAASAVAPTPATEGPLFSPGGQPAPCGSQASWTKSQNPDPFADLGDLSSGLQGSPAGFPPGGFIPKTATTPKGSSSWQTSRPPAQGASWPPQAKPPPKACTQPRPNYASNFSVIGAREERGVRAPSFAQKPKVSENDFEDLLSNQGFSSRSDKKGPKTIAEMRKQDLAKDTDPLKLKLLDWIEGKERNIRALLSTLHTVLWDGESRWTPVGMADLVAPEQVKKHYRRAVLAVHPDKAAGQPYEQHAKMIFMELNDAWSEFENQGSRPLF
Method in brief: as §1

[4] = molecular target: T4, ~100 representative kinases (Homo sapiens, UniProt Q9H2X6); conditions: protein HIPK2; average of three replicates
T4 construct: Recombinant protein kinase domains with a concentration of 2 μM
Method in brief: as §1

[5] = molecular target: T5, ~100 representative kinases (Homo sapiens, UniProt P48730); conditions: Protein CSNK1D; average of three replicates
T5 construct: Recombinant protein kinase domains with a concentration of 2 μM
Method in brief: as §1

[6] = molecular target: T6, ~100 representative kinases (Homo sapiens, UniProt Q99640); conditions: protein PKMYT1; average of three replicates
T6 construct: Recombinant protein kinase domains with a concentration of 2 μM
T6 sequence (Q99640 1-499): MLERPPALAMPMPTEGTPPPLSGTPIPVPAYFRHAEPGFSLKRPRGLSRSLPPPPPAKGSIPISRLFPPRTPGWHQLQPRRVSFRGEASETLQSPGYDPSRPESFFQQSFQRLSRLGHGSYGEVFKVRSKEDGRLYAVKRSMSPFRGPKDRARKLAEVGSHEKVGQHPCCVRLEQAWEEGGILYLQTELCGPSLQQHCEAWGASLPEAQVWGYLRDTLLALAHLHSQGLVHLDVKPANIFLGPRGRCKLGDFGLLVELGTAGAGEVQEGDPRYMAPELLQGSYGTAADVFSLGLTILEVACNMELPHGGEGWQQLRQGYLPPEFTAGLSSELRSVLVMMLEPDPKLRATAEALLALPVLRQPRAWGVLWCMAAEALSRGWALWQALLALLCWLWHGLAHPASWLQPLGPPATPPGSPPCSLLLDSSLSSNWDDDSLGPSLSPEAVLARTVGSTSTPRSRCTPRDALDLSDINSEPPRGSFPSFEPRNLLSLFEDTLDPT
Method in brief: as §1

[7] = molecular target: T7, ~100 representative kinases (Homo sapiens, UniProt Q96RR4); conditions: Protein CAMKK2; average of three replicates
T7 construct: Recombinant protein kinase domains with a concentration of 2 μM
Method in brief: as §1

T7 sequence (Q96RR4 whole entry, the tested form may be a part): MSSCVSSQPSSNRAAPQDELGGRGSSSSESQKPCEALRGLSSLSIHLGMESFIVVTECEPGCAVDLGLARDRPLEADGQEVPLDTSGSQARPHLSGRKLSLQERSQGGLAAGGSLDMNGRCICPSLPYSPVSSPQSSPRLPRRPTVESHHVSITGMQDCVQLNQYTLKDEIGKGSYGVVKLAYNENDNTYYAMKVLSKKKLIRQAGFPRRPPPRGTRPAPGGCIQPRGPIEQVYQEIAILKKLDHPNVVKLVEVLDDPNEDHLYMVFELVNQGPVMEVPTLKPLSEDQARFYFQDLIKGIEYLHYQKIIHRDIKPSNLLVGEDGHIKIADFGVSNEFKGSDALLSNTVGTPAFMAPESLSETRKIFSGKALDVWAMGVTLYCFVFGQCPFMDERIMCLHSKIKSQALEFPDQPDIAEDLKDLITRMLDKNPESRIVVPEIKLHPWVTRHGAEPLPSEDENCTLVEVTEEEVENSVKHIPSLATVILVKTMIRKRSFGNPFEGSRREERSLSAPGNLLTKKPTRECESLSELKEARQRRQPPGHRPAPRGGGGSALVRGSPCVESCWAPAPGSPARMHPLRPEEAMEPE
T1 sequence (P00519 whole entry, the tested form may be a part): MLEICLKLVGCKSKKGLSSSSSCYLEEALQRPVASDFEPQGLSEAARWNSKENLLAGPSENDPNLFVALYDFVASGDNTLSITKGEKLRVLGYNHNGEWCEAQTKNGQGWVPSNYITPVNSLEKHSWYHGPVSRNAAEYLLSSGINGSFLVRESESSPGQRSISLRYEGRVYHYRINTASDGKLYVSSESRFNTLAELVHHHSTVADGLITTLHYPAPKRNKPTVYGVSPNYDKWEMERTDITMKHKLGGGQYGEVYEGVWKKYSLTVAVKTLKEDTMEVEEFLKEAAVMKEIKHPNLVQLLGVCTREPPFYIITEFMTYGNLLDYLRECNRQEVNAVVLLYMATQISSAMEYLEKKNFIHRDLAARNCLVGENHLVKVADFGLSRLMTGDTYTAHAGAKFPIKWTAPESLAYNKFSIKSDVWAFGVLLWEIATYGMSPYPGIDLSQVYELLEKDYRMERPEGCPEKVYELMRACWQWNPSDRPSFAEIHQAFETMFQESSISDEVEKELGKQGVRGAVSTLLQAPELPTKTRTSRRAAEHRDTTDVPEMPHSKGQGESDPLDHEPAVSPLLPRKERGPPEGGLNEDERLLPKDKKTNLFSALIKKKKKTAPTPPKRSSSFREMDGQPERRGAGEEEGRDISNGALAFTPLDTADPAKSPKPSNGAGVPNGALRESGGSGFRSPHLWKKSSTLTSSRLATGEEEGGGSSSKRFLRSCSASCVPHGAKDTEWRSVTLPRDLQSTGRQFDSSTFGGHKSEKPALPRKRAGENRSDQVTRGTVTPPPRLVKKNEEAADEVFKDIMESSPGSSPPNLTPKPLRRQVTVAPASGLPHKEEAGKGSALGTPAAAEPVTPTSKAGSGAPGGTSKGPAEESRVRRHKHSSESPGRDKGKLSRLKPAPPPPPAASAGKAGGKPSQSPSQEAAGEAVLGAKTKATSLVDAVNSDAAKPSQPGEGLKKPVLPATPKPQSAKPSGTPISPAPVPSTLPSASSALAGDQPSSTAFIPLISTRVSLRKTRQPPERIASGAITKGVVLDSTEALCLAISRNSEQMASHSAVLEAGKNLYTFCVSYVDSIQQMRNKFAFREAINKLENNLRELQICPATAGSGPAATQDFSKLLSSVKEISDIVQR
T2 sequence (P49137 whole entry, the tested form may be a part): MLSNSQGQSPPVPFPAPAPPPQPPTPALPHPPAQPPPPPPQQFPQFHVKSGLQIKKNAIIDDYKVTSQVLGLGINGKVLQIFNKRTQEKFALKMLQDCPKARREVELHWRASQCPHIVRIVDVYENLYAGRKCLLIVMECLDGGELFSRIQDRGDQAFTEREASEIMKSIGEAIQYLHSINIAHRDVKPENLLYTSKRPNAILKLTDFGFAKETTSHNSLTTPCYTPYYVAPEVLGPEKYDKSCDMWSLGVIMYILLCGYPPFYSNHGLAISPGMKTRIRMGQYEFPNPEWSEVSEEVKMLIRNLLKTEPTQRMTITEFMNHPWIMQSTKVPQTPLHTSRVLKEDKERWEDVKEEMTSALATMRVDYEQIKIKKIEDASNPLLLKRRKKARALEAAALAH
T5 sequence (P48730 whole entry, the tested form may be a part): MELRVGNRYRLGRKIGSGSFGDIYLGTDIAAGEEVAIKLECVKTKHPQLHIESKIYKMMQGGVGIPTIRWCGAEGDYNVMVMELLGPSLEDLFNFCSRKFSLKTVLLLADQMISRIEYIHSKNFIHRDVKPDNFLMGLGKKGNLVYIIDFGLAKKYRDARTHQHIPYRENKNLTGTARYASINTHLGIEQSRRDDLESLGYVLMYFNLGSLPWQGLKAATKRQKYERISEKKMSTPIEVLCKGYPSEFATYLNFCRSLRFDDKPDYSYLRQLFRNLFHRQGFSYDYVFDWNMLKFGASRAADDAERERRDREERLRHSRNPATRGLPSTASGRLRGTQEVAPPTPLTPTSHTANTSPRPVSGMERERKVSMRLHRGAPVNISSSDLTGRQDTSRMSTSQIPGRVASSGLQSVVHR
T4 sequence (Q9H2X6 whole entry, the tested form may be a part): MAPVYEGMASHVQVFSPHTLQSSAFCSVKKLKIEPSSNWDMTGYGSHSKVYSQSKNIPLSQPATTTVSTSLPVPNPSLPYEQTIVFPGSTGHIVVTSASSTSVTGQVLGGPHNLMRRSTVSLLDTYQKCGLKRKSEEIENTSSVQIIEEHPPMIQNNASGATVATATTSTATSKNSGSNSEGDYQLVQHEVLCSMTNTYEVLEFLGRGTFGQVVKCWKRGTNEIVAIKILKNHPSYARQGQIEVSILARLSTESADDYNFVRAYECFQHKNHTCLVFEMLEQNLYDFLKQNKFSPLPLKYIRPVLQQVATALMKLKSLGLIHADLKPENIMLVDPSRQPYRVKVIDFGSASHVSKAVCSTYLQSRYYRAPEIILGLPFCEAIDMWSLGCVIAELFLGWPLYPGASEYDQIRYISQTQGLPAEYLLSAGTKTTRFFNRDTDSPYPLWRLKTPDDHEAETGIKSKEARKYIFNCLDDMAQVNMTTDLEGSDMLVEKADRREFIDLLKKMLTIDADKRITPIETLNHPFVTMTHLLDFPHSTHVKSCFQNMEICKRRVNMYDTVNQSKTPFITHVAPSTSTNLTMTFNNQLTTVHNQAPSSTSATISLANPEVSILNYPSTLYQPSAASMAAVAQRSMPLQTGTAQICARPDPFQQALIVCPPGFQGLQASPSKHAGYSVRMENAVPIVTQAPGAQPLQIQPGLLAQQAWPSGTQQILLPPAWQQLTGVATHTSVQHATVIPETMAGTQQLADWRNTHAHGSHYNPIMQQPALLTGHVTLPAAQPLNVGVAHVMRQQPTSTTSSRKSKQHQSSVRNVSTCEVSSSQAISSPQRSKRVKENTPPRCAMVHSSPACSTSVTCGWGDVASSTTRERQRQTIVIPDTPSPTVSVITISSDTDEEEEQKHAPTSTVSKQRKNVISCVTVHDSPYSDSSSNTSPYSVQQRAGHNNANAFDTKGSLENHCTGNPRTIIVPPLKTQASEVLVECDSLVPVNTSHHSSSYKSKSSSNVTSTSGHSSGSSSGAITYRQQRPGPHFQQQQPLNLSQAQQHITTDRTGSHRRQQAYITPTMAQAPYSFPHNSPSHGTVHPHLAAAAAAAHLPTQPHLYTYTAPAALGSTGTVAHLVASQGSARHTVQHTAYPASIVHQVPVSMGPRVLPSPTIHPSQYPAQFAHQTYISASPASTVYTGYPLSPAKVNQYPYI

dTm [1]	dTm [2]	dTm [3]	dTm [4]	dTm [5]	dTm [6]	dTm [7]	Compound
7.59 K	-0.41 K	3.03 K	4.31 K	0.0454 K	0.41 K	10.65 K	Cc1ccc(C(=O)Nc2ccc(CN3CCN(C)CC3)c(C(F)(F)F)c2)cc1C#Cc1c[nH]c2ncnc(N3CCOCC3)c12 [Compound 1]
1.47 K	-0.40 K	0.23 K	9.65 K	2.09 K	-2.28 K	7.29 K	O=C(Nc1ccc(F)cc1)C1(C(=O)Nc2cccc(-c3c[nH]c4ncnc(N5CCOCC5)c34)c2)CC1 [Compound 2]
2.49 K	-0.41 K	0.0652 K	8.43 K	5.34 K	0.10 K	8.67 K	O=C(Nc1cccc(-c2c[nH]c3ncnc(N4CCOCC4)c23)c1)c1cccn(-c2ccc(F)cc2)c1=O [Compound 4]
1.02 K	0.62 K	0.83 K	0.87 K	1.10 K	-0.19 K	4.32 K	Cc1cc(NC(=O)C2(C(=O)Nc3ccc(F)cc3)CC2)cc(-c2c[nH]c3ncnc(N4CCOCC4)c23)c1 [Compound 6]
1.38 K	-0.26 K	-0.59 K	1.82 K	1.21 K	-0.88 K	5.02 K	O=C(Nc1cccc(-c2c[nH]c3ncnc(N4CCOCC4)c23)c1)C1(C(=O)Nc2cccc3c2CCC3)CC1 [Compound 11]
1.58 K	-0.15 K	1.44 K	7.64 K	1.61 K	0.71 K	5.09 K	O=C(Nc1ccccc1)C1(C(=O)Nc2cccc(-c3c[nH]c4ncnc(N5CCOCC5)c34)c2)CC1 [Compound 12]
2.64 K	0.68 K	1.60 K	10.73 K	2.99 K	0.52 K	7.83 K	O=C(Nc1ccc(Cl)cc1)C1(C(=O)Nc2cccc(-c3c[nH]c4ncnc(N5CCOCC5)c34)c2)CC1 [Compound 13]
1.79 K	-0.14 K	0.81 K	8.21 K	1.58 K	0.43 K	4.94 K	Cc1ccc(NC(=O)C2(C(=O)Nc3cccc(-c4c[nH]c5ncnc(N6CCOCC6)c45)c3)CC2)cc1 [Compound 14]
1.94 K	0.05 K	0.09 K	8.10 K	1.30 K	0.54 K	5.52 K	CCc1ccc(NC(=O)C2(C(=O)Nc3cccc(-c4c[nH]c5ncnc(N6CCOCC6)c45)c3)CC2)cc1 [Compound 15]
1.06 K	-0.05 K	0.0654 K	6.00 K	0.92 K	-0.09 K	1.74 K	COc1ccc(NC(=O)C2(C(=O)Nc3cccc(-c4c[nH]c5ncnc(N6CCOCC6)c45)c3)CC2)cc1 [Compound 16]
1.22 K	-0.12 K	1.14 K	9.54 K	2.63 K	0.00857 K	6.90 K	O=C(Nc1cccc(-c2c[nH]c3ncnc(N4CCOCC4)c23)c1)C1(C(=O)Nc2ccc(F)c(F)c2)CC1 [Compound 17]
2.25 K	0.22 K	1.28 K	10.76 K	3.14 K	-1.54 K	9.58 K	O=C(Nc1cccc(-c2c[nH]c3ncnc(N4CCOCC4)c23)c1)C1(C(=O)Nc2ccc(F)c(Cl)c2)CC1 [Compound 18]
1.83 K	-0.94 K	1.18 K	2.50 K	0.43 K	-0.61 K	9.18 K	O=C(Nc1cccc(-c2c[nH]c3ncnc(N4CCOCC4)c23)c1)C1(C(=O)Nc2ccc(F)c(Br)c2)CC1 [Compound 19]
10.07 K	-0.55 K	0.00 K	9.24 K	0.95 K	-0.41 K	–	Cc1ccc(-n2nc(C(C)(C)C)cc2NC(=O)Nc2cccc(-c3c[nH]c4ncnc(N5CCOCC5)c34)c2)cc1 [Compound 29]
2.41 K	-0.50 K	-1.53 K	1.85 K	-2.91 K	-0.62 K	–	Cc1ccc(-n2nc(C(C)(C)C)cc2NC(=O)Nc2cccc(-c3c[nH]c4nc(Cl)nc(N5CCOCC5)c34)c2)cc1 [Compound 30]
2.73 K	-0.40 K	3.32 K	2.23 K	-0.88 K	-0.30 K	–	CC(=O)N1CCN(c2nc(Cl)nc3[nH]cc(-c4cccc(NC(=O)Nc5cc(C(C)(C)C)nn5-c5ccc(C)cc5)c4)c23)CC1 [Compound 31]
1.16 K	2.68 K	6.68 K	0.93 K	4.03 K	-0.59 K	–	COc1cc(C(=O)N2CCOCC2)c(F)cc1Nc1nc(N(C)C)c2c(Cl)c[nH]c2n1 [Compound 36]
0.38 K	0.98 K	3.76 K	0.11 K	2.29 K	-0.22 K	–	COc1cc(S(C)(=O)=O)ccc1Nc1nc(N(C)C)c2c(Cl)c[nH]c2n1 [Compound 37]

Compound	dTm [1]	dTm [2]	dTm [3]	dTm [4]	dTm [5]	dTm [6]	dTm [7]
Cc1ccc(C(=O)Nc2ccc(CN3CCN(C)CC3)c(C(F)(F)F)c2)cc1C#Cc1cnc2cccnn12 [Ponatinib, reference compound]	–	–	–	–	–	-0.27 K	–
CNC(=O)c1cc(Oc2ccc(NC(=O)Nc3cc(C(C)(C)C)nn3-c3ccc4ncccc4c3)c(F)c2)ccn1 [Rebastinib, reference compound]	–	0.44 K	4.99 K	–	-1.01 K	0.77 K	8.93 K
CN[C@@H]1C[C@H]2O[C@@](C)([C@@H]1OC)n1c3ccccc3c3c4c(c5c6ccccc6n2c5c31)C(=O)NC4 [Staurosporine]	–	–	–	4.23 K	2.05 K	–	24.44 K
